The text below walks through data of patent US9808434B2, “Compound for treating cancer and diabetes” (CITY OF HOPE, priority 2011, dated 2017).

The nature of series [1]: Metabolic effects in HFD obese mice. Type of series: in vivo, mouse. The procedure: All animal experiments were carried out in accordance with the protocols approved by the Institutional Animal Care and Use Committee of the City of Hope. Nine-week old male C57BL/6J mice fed on high fat diet (HFD, 60% fat) and 10-week old db/db mice were given COH-SR4 (5 mg/kg B.W.) or vehicle (corn oil) via oral gavage every other day for six and five weeks, respectively. Oral glucose tolerance test was performed on animals after an overnight fast. All other metabolic parameters were measured at the end of study. Liver samples were stained with H&E and Oil Red O.
All data represented are mean±SEM. *P<0.05, **P<0.01 vs. LFD or db/+; ^#P<0.05, ^##P<0.01 vs. HFD or db/db. n=12 animals per group for HFD mice. LFD=low fat diet (lean), HFD=high fat diet (obese). n=8 animals per group for db/db mice.
Representative mice in each treatment group (LFD, HFD, and HFD treated with COH-SR4 (HFD+SR4)) depicted gross images of whole body shape (top) and abdominal fat (bottom) (FIG. 85A).

A further series has as its system hepatic genes. Put plainly: Liver gene expression of HFD obese and db/db mice. The note with it: RT-PCR and RNA-seq. Type of series: in vivo, mouse. An excerpt:
Total RNA was isolated from livers of lean, vehicle or COH-SR4-treated HFD mice using standard protocols and subjected to quantitative RT-PCR using primers for key genes associated with lipid and fatty acid synthesis (Acaca, Pparg, Acly, Scd1, Srebf1, Hmgcr, Cpt1, Fasn) and gluconeogenesis (G6pc, Pck1). Livers of db/+ and db/db mice treated with vehicle or COH-SR4 were used for RNA-seq analysis. RNA isolation, purification, sequencing, library preparation and read alignments were done at the City of Hope Functional Genomics Core facility. Differential gene expression was identified from standard Partek workflow (Partek Genomics Suite v6.6, Partek, Inc) using ANOVA, with step-up FDR multiple testing correction p-value of <0.05 and 1.5× fold change. […] Databases utilized included GOTERM_BP_FAT (biological process) and Kyoto Encyclopedia of Genes and Genomes (KEGG_PATHWAY).
Total RNA was isolated from liver of control animals and HFD obese or db/db mice treated with vehicle or COH-SR4 (as described in Example 35). Relative mRNA expression (mean±SEM) of lipogenic and gluconeogenic genes were determined using real time RT-PCR and quantified using the comparative Ct method (FIG. 86A, ^#P<0.05, ^##P<0.01 vs. HFD). […] Key hepatic genes associated with lipid/fatty acid synthesis and glucose and amino acid metabolism regulated by COH-SR4 in db/db mice are shown in FIG. 86D.

The next series deals with B16F10 cells. Put plainly: B16F10 cell viability. Format: cell-based, mouse. As to conditions: 1-10 μM, 48 hours; vs COH-SR9 and COH-SR18. The procedure: Cells of highly aggressive mouse melanoma cell line B16F10 were incubated with various doses of COH-SR4, COH-SR9 and COH-SR18 (1, 3, 5 or 10 μM) for 48 hours.
In a further series the test system is H520 cells. Put plainly: MTT assay, H520. Type of series: cell-based. The note with it: Homo sapiens, NCI-H520, 48 h. The procedure: (§1) Cell density measurements were performed using a hemocytometer to count reproductive cells resistant to staining with trypan blue. Approximately 20,000 cells were plated into each well of 96-well flat-bottomed micro-titer plates. After 12 h or 24 h incubation at 37° C., medium containing either COH-SR4 (ranging 0-200 μM) or elesclomol (ranging 0-20 μM) were added to the cells. After 24 h, 48 h or 96 h incubation, 20 μL of 5 mg/mL MTT were introduced to each well and incubated for 2 h. The plates were centrifuged and medium was decanted. Cells were subsequently dissolved in 100 μl DMSO with gentle shaking for 2 h at room temperature, followed by measurement of OD570 (91).
The effect of COH-SR4 was first examined in a NCI panel of cancer cell lines, the results of which indicated good activity of COH-SR4 towards lung cancer (FIG. 78A). […] Values are presented as mean±SD from two separate determinations with eight replicates each (n=16) (FIG. 78B). […] Standard colony-forming assay was performed and the colonies were counted using Innotech Alpha Imager HP. […] TUNEL assay was performed using Promega fluorescence detection kit and examined using Zeiss LSM 510 META laser-scanning fluorescence microscope with filters 520 and 620 nm. […]

For a further series, the system named is B16-F0. In words: MTT assay, B16-F0. As to conditions: Mus musculus. Format: cell-based. The procedure: as §1
Cells of highly aggressive mouse melanoma cell line B16-F0 or human melanoma cell line Hs600T were incubated with various doses of COH-SR4 (1, 2.5, 5, 10, 25, 50, or 100 μM). The cell viabilities after treatment of 48 hours and 96 hours were measured and summarized in FIGS. 54A and 55A, respectively. […] Data were presented as mean±Standard Deviation from two separate determinations with eight replicate each (n=16).

In a further series the test system is H358 and H520 cells. In words: COH-SR4 cytotoxicity after siRNA knock-down of AMPK, XTT. Format: cell-based, human. The procedure: The effects of COH-SR4 on cell viability were assessed in quadruplicate samples using the 2,3-bis (2-methoxy-4-nitro-5-sulfophenly)-5-[(phenylamino) carbonyl]-2H-tetrazolium hydroxide (XTT) assay. Briefly, 20,000 cells were seeded and incubated in 96-well, flat-bottomed plates in 10% FBS-supplemented culture medium 24 h before drug treatment. After 24 h incubation at 37° C., cells were then exposed to the indicated concentrations of drug at 37° C. in 5% CO2 for 48 h. The medium was removed and replaced with 100 μL fresh medium containing 50 μL of the activated-XTT solution to each well, and the cells were further cultured in the CO2 incubator at 37° C. for 4 h. Absorbance was determined on a plate reader at 475 nm.
AMPK was knocked down by siRNA and assessed the impact on COH-SR4-induced cytotoxicity. […] Thus, the in-vitro analyses of critical signaling proteins of cell proliferation further supported the anti-cancer effects of COH-SR4 in lung cancer cells.

For orientation: IC50 means the concentration that gives 50% inhibition. Lower therefore signals greater potency.

Turning to `O=C(Nc1cc(Cl)cc(Cl)c1)Nc1cc(Cl)cc(Cl)c1` [COH-SR4, 1,3-bis(3,5-dichlorophenyl) urea], the body weight result in series [1] (5 mg/kg oral every other day, six weeks) is “decreased body weight”. Also, in series [1] (six weeks), the glucose tolerance result was “improved glucose tolerance”; the “hepatic lipid accumulation (Oil Red O, H&E)” value was “little hepatic lipid accumulation”; the plasma insulin concentration result is given as “lower plasma insulin concentration”; the plasma lipids result is listed as “significantly reduced plasma lipids”. The food intake entry in series [1] (vs control HFD mice) is recorded as “No significant difference in food intake”. In addition, the hepatic pathways affected entry in the series with hepatic genes is “downregulated hepatic lipogenesis and glucose metabolic pathways, while upregulating amino acid metabolism”. Also, the “potency in killing B16F10 cells” value in the series on B16F10 cells is on record as “best potency”. This compound also displayed an IC50 with H520 cells of 2.4 ± 0.3 µM. For the same compound, in the series on B16-F0 (B16F0, 48 h, 48 hours), the IC50 was about 14 µM. This compound had an IC50 in the series with B16-F0 (B16F0, 96 h, 96 hours) of about 5 µM. Moreover, the “cytotoxicity of COH-SR4 after knock-down of AMPK” value in the series with H358 and H520 cells was “significant reversal in the cytotoxicity”.
